Data published in patent publication US10987344B2, “Pharmaceutical composition capable of the incorporation of lenalidomide in various crystalline modifications” (GRINDEKS, A JOINT STOCK COMPANY, priority 2015, dated 2021).
In brackets after ≈: the same amount, converted by molar mass. Where a name gives a salt, the structure may show the parent alone. Read-outs that look alike come from different tables or passages of the source.

Assays:
[1] = Solubility of Lenalidomide modifications: saturated solutions in three media, HPLC analysis; assay type: physicochemical
Experimental: As the case for their visual appearance, also the solubility of those different Lenalidomide modifications is quite different.
• Solubilities are determined by preparing saturated solutions in the three media, followed by HPLC-analysis.

[2] = Particle size distribution (d90), Malvern Mastersizer 2000, wet dispersion in cyclohexane; assay type: physicochemical
Experimental: The D90 value is defined such that 90% by volume of the particles have a particle size smaller than the d90 value and 10% by volume of the particles have a greater particle size greater than the d90 value.
Sample solution. Place 50 mg of well mixed sample to a 100 mL beaker. Add 25 mL of cyclohexane. Using Pasteur pipette transfer small aliquots of sample slurry to the measuring cuvette until the concentration reading is good. The beaker is swirled efficiently before each pipetting.
Measurement according to the operating instructions. Perform three successive determinations, from which calculate the mean value.

[3] = as prepared in reference example 1 (not milled)
[4] = 0.1M hydrochloric acid, pH 1, simulated gastric fluid, thermodynamic from solid, 0.1M HCl, pH 1.0, read-out: Solubility
[5] = acetate buffer, pH 4.5, aqueous buffer, thermodynamic from solid, Acetate buffer, pH 4.5, read-out: Solubility
[6] = phosphate buffer, pH 6.8, aqueous buffer, thermodynamic from solid, Phosphate buffer, pH 6.8, read-out: Solubility

Solubility ([1]; 0.1M HCl, pH 1.0) | Solubility ([1]; Acetate buffer, pH 4.5) | Solubility ([1]; Phosphate buffer, pH 6.8) | PSD, d90 [2, 3] | PSD, d90 ([2]; example 2, after milling 15 min at 20 Hz, listed as Ammonium chloride cocrystal) | Solubility relative to base form B ([1]; 0.1M hydrochloric acid at pH1) | PSD, d90 ([2]; example 2, after milling 15 min at 20 Hz, listed as Hydrochloride salt) | Solubility [1, 4] | Solubility [1, 5] | Solubility [1, 6] | PSD, d90 ([2]; example 2, after milling 15 min at 20 Hz) | Structure (SMILES)
7760 µg/mL | 420 µg/mL | 360 µg/mL | 383 μm | 31 μm | – | – | – | – | – | – | Nc1cccc2c1CN(C1CCC(=O)NC1=O)C2=O (stereo not shown) [NH4Cl cocrystal]
9000 µg/mL | 370 µg/mL | 330 µg/mL | 434 μm | – | more than 3 times | 43 μm | – | – | – | – | Nc1cccc2c1CN(C1CCC(=O)NC1=O)C2=O (stereo not shown) [HCl salt]
– | – | – | – | – | – | – | 6330 µg/mL | 380 µg/mL | 350 µg/mL | – | Nc1cccc2c1CN(C1CCC(=O)NC1=O)C2=O (stereo not shown) [DMSO solvate]
– | – | – | – | – | – | – | 2740 µg/mL (≈ 10600 µM) | 330 µg/mL (≈ 1270 µM) | 330 µg/mL (≈ 1270 µM) | – | Nc1cccc2c1CN(C1CCC(=O)NC1=O)C2=O (racemic) [Base form B, (RS)-3-(4-Amino-1-oxo 1,3-dihydro-2H-isoindol-2-yl)piperidine-2,6-dione]
4760 µg/mL (≈ 18400 µM) | 430 µg/mL (≈ 1660 µM) | 390 µg/mL (≈ 1500 µM) | 219 μm | – | – | – | – | – | – | 35 μm | Nc1cccc2c1CN(C1CCC(=O)NC1=O)C2=O (racemic) [Base form A, (RS)-3-(4-Amino-1-oxo 1,3-dihydro-2H-isoindol-2-yl)piperidine-2,6-dione]
